Laboratory results: PMC11467737, “Osteocalcin binds to a GPRC6A Venus fly trap allosteric site to positively modulate GPRC6A signaling” (FASEB BioAdvances, 2024)
Numbering of substitutions follows the chain as printed. Bridge positions count the residues as written; N and C are the ends. Ends that are not written are not given here.

Experiments:
Format in all cases: cell-based
K352E/H355P hGPRC6A [1] = molecular target: T1, K352E/H355P hGPRC6A (Homo sapiens, UniProt Q5T6X5, H355P/K352E); test: cAMP accumulation in HEK-293 cells transfected with K352E/H355P hGPRC6A; settings: for cAMP accumulation by Ocn small fragments: K352E/H355P double mutant, fragment at 20 nM, Figure 6C
T1 construct: expressed in transfected cells; host or cells: HEK-293, pcDNA3
T1 sequence (Q5T6X5 19-926 K352E/H355P): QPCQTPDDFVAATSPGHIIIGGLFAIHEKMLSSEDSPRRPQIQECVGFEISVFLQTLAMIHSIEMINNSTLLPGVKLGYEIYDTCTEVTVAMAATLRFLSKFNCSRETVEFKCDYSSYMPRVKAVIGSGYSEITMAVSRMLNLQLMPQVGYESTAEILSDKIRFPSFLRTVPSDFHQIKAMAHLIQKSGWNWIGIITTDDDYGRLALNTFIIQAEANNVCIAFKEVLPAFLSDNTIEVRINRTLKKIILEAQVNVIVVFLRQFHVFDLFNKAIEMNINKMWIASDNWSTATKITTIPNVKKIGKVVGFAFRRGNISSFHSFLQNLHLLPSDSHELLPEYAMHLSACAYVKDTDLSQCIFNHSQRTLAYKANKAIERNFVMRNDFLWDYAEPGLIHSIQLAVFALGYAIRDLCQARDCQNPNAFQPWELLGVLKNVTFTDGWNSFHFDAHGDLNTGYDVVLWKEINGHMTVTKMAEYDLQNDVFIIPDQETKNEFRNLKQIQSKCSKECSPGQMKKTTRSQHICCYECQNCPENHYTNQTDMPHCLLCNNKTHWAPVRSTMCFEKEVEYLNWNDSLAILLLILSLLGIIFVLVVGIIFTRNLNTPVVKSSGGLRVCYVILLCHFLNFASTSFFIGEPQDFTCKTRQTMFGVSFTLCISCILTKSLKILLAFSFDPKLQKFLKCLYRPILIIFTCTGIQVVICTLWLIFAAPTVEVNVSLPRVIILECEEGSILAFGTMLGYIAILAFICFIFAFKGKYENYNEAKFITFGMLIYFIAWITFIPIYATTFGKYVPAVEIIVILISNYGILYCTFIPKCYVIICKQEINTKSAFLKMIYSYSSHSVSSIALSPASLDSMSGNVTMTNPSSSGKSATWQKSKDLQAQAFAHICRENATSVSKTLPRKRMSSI
Protocol: (§1) HEK‐293 transfected with human GPRC6A isoform cDNA plasmids cells (10^5 cells/well)[30] were cultured in 24‐well plates in DMEM supplemented with 10% fetal bovine serum and 1% penicillin/streptomycin (100 U/mL of penicillin and 100 μg/mL of streptomycin) for 48 h followed by 4 h incubation in DMEM/F12 containing 0.1% BSA and 0.5 mM IBMX to achieve quiescence and preventing cAMP degradation. Quiescent cells were treated with vehicle control, various ligands at concentration as indicated for 40 min at 37°C. Then, the reaction was stopped, and the cells lysed with 0.5 mL 0.1 N HCl. cAMP levels were measured by using Cyclic AMP EIA kit (Cayman Chemical; Ann Arbor, MA, USA) following the manufacture's protocol.
(§2) In‐vitro mutagenesis by PCR‐mediated recombination QuikChange II XL Site‐Directed Mutagenesis Kit (Agilent) was performed using the cDNA of human GPRC6A cloned in the vector pcDNA3 (Invitrogen) as a template. The primer sets are as follows. K352E.sen: […]; K352E.antisen: […]; H355P.sen: […]; H355P.antisen: […]; K352E/H355P.sen: […]; and K352E/H355P.antisen: […]. All mutants were confirmed by sequencing.

H355P hGPRC6A = molecular target: T2, H355P hGPRC6A (Homo sapiens, UniProt Q5T6X5, H355P); test: cAMP accumulation in HEK-293 cells transfected with H355P hGPRC6A; settings: H355P mutant; for cAMP accumulation by Ocn small fragments: fragment at 20 nM, Figure 6C
T2 construct: expressed in transfected cells; host or cells: HEK-293, pcDNA3
T2 sequence (Q5T6X5 19-926 H355P): T1 sequence (Q5T6X5 19-926 K352E/H355P) with E334K
Protocol: as §1, §2

K352E/H355P hGPRC6A [2] = molecular target: T1, K352E/H355P hGPRC6A; test: ERK activation in HEK-293 cells transfected with K352E/H355P hGPRC6A; settings: for ERK activation by Ocn small fragments: K352E/H355P double mutant, fragment at 20 nM, Figure 6D
Protocol: All culture reagents were from Invitrogen (Waltham, MA, USA). Human embryonic kidney HEK‐293 cells were obtained from American Type Culture Collection and cultured in DMEM medium supplemented with 10% fetal bovine serum and 1% Penicillin/Streptomycin (P/S). Briefly, HEK‐293 cells transfected with/without human GPRC6A isoforms cDNA plasmids were starved by overnight incubation in serum‐free DMEM/F12 containing 0.1% bovine serum albumin (BSA) and stimulated with various ligands at different doses. ERK activation was assessed 20 min after treatment by using ERK1/2 (phospho‐T203/Y204) ELISA Kit (Invitrogen; Waltham, MA, USA) corrected for the amount of total ERK using ERK1/2 (Total) ELISA Kit (Invitrogen; Waltham, MA, USA) to measure ERK levels.
as §2

osteocalcin (YLYQWLGAPVPYPDPLEPRREVCELNPDCDELADHIGFQEAYRRFYGPV; not fully specified; ends and bridges not checked; UniProt P02818 52-100, looked up) [Ocn 1–49, full human Ocn (49 aa) synthesized by BioMatik; methods also describe decarboxylated Ocn purified from bovine tibial bone, reference compound]
cAMP accumulation, dose response of full-length Ocn, versus wild-type receptor (K352E/H355P hGPRC6A [1]; K352E/H355P mutant, Figure 6A): significantly decreased | cAMP accumulation, dose response of full-length Ocn, versus wild-type receptor (H355P hGPRC6A; Figure 6A): significantly decreased | ERK phosphorylation, dose response of full-length Ocn, versus wild-type receptor (K352E/H355P hGPRC6A [2]; K352E/H355P mutant, Figure 6B): significantly decreased

RFYGPV [Ocn 44–49, synthesized human Ocn C‐terminal hexapeptide]
cAMP accumulation by Ocn small fragments (K352E/H355P hGPRC6A [1]): partially activate | cAMP accumulation by Ocn small fragments (H355P hGPRC6A): significantly attenuated | ERK activation by Ocn small fragments (K352E/H355P hGPRC6A [2]): partially activate

REVCELNPDC (disulfide 4-10 (inferred)) [Ocn 20–29, synthesized human Ocn decapeptide fragment located in the middle of the protein]
cAMP accumulation by Ocn small fragments (K352E/H355P hGPRC6A [1]): no response | cAMP accumulation by Ocn small fragments (H355P hGPRC6A): no response | ERK activation by Ocn small fragments (K352E/H355P hGPRC6A [2]): no response
